In patent US8816082B2, “Heterocyclyl-pyridinyl-based biphosphonic acid, pharmaceutically acceptable salt thereof, composition thereof and method of use thereof” (The Royal Institution for the Advancement of …, priority 2010, dated 2014):
Read-outs that look alike come from different tables or passages of the source.

What was measured:
[1] = molecular target: T1, human farnesyl pyrophosphate synthase (hFPPS) (Homo sapiens, UniProt P14324); assay: In vitro enzymatic inhibition assay for hFPPS, initial screening conditions (partly purified enzyme, 5 min pre-incubation); format: biochemical
T1 sequence (P14324 1-419): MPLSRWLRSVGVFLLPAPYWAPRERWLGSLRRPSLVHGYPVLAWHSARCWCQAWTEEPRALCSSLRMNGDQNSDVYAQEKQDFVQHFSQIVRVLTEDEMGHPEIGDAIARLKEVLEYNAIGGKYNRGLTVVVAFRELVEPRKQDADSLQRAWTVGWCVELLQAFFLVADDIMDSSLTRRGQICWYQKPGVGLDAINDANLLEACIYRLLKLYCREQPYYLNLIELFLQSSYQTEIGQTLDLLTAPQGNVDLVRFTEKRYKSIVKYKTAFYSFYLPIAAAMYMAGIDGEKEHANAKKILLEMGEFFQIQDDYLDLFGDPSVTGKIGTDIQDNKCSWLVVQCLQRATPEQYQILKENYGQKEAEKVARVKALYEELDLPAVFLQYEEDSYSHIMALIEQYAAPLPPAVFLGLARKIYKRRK

[2] = system: multiple myeloma JJN3 cells; assay: Anti-proliferation assay (MTT), multiple myeloma JJN3 cells; format: cell-based; settings: Homo sapiens
Procedure: (§1) In addition, select compounds were tested in anti-proliferation assays using multiple myeloma JJN3 cells and breast cancer MCF-7 cells. Cells were cultured with either an hFPPS inhibitor (i.e. representative Examples 1 to 42) at increasing concentrations (from 10 nM to 100 μM) or a vehicle control.

[3] = system: breast cancer MCF-7 cells; assay: Anti-proliferation assay (MTT), breast cancer MCF-7 cells; format: cell-based; settings: Homo sapiens, MCF7, read-out: % inhibition of breast cancer MCF-7 cell proliferation at 50 μM inhibitor, 24 h, vs vehicle control, averages of four determinations
Procedure: as §1

[4] = molecular target: T2, hFPPS (Homo sapiens, UniProt P14324); assay: hFPPS IC50 determination under more optimised conditions (Table 4)
T2 sequence (P14324 1-419): T1 sequence (P14324 1-419)

[5] = molecular target: T2, hFPPS; assay: hFPPS inhibition, high throughput mode at fixed concentration, more optimized assay (purer hFPPS, 10 min pre-incubation); settings: read-out: % Inhibition at 1 μM
[6] = system: NCI-H460 cells (lung large cell carcinoma); assay: Cell growth inhibition assay (MTT), NCI-H460 cells; format: cell-based; settings: Homo sapiens, 96 h, 4 days, preliminary data, read-out: EC50 (inhibition of cell proliferation)
[7] = JJN-3, read-out: % inhibition of MM JJN3 cell proliferation at 50 μM inhibitor, 24 h, vs vehicle control, averages of four determinations
[8] = JJN-3, read-out: % inhibition of MM JJN3 cell proliferation at 50 μM inhibitor, 48 h, vs vehicle control, averages of four determinations

SMILES	inhibition at 1 µM [5]	inhibition at 50 µM [2, 7]	inhibition at 50 µM [2, 8]	inhibition at 50 µM [3]	also measured
O=P(O)(O)C(F)(Cc1cncc(-c2ccc3[nH]ncc3c2)c1)P(=O)(O)O [Compound 7]	–	28%	19%	20%	IC50 [1]: 640 nM; IC50 [4]: 150 nM
O=P(O)(O)C(Nc1cccc(-c2ccccc2)n1)P(=O)(O)O [Compound 12]	35%	–	–	–	–
O=P(O)(O)C(Nc1cc(-c2ccc3[nH]ncc3c2)ccn1)P(=O)(O)O [Compound 14]	45%	–	–	–	–
O=P(O)(O)C(Nc1ncccc1Br)P(=O)(O)O [Compound 36]	–	15%	26%	25%	IC50 [4]: 180 nM
O=P(O)(O)C(O)(Cc1cccnc1)P(=O)(O)O [Risedronate, reference compound]	–	9%	17%	16%	EC50 [6]: 80000 to 100000 nM

More lines, main results first:

inhibition at 1 µM [5]	SMILES	inhibition at 50 µM [2, 7]	inhibition at 50 µM [2, 8]	inhibition at 50 µM [3]	also measured
65%	O=P(O)(O)C(Nc1cc(-c2ccc3ccccc3c2)ccn1)P(=O)(O)O [Compound 26]	–	–	–	–
90%	O=P(O)(O)C(Nc1cc(-c2ccc(Cl)cc2)ccn1)P(=O)(O)O [Compound 40]	–	–	–	–
95%	O=P(O)(O)C(Nc1cc(-c2ccc(F)cc2)ccn1)P(=O)(O)O [Compound 42]	–	–	–	–
